Source: patent US4376766A, “Anti-sickling agents” (G.D. Searle & Co., priority 1980, dated 1983)

Tests used:
[1] = Solubility in physiological buffers; assay type: physicochemical
[2] = tested on: sickle cell haemoglobin (HbS); assay: HbS gelation assay (solubility Csol of deoxygenated HbS); assay type: biochemical, human
Procedure: A number of in vitro methods have been developed for testing the effects of compounds of the functioning of HbS molecules. One such method determines the ability of a compound to inhibit gel formation in HbS solutions. In this gelation assay, Hb solution in phosphate buffer, pH 7.0, at physiological concentrations are mixed at 0° C. with the test compound and deoxygenated by evacuation. […] The solutions are then transferred to centrifuge tubes and equilibrated at 37° C. for 30 minutes before centrifugation at 150,000 g for 1 hour. The supernatant is decanted from the gel and the Hb concentration (Csol) thereof determined spectrophotometrically. For sickle cell haemoglobin without addition of anti-sickling agent, the Csol is typically 17 gm/dl. This compares with a Csol of 23 gm/dl for haemoglobin extracted from individuals having sickle cell trait.

HbS = assay: Rate of polymerisation of HbS: lag time before onset of gelation after temperature jump; assay type: biochemical, human; conditions: different molar ratios of dipeptide:HbS, FIG. 4
Procedure: The rate of polymerisation of HbS molecules may be followed by spectrophotometrically monitoring the onset of gelation, after a temperature jump from 0° C. to 37° C., in a concentrated HbS solution. An effective anti-sickling agent should reduce the rate of polymerisation by at least ten-fold.

SS cells = assay: Oxygen dissociation curve (P50) of sickle cells; assay type: cell-based, human
From the text: (§1) The uptake of oxygen by haemoglobin as a function of oxygen pressure gives a measure of the oxygen affinity of the haemoglobin and is often described by the value of P50, i.e. the pressure of oxygen at which haemoglobin is 50% saturated with O2. The P50 for HbS is typically higher than that for HbA, the decreased affinity for O2 compensating for the anaemia associated with the disease by facilitating release of O2 to the tissues. An agent which would decrease the P50 of HbS would cause the deoxy-form of the molecule to be less favoured and would thus inhibit polymerisation. It is possible to correlate the degree of oxygenation of sickle erythrocytes with the ability thereof to assume sickled morphology by counting deoxygenated cells using a light microscope. An anti-sickling agent which reduces the number of sickled cells produced at low oxygen concentrations would be effective in preventing or diminishing a crisis.

whole sickle cells = assay: Microscopic whole cell sickling assay; assay type: cell-based, human
From the text: as §1
There are fewer sickle cells in the presence of the dipeptide over the entire range of oxygen concentration. […] In vivo, this increased reversibility would reduce the number of circulating irreversibly sickled cells (ISC).

Substance: L-lysine-L-phenylalanine
- solubility in physiological buffers [1]: readily soluble
- effect on Csol of HbS ([2]; FIG. 2): increase in Csol
- inhibition of gelation of deoxygenated HbS solutions ([2]; in vitro): inhibit the gelation
- Csol (solubility of homozygous sickle cell haemoglobin) ([2]; peptide:Hb tetramer ratio of 4.7:1, from linear plot of Csol versus log (peptide:Hb), HbS without agent typically 17 gm/dl): 23 gm/dl
- increase of HbS solubility over L-phenylalanine ([2]; relative to L-phenylalanine): four-fold
- lag time before gelation (rate of polymerisation) (HbS): increase in the delay before gelation
- P50 (SS cells; SS cells + 25 mM peptide, 3 hours incubation at 37° C., 5:1 molar ratio extra-cellular dipeptide:intra-cellular HbS, 51 mm without peptide): 41 mm of mercury
- oxygen affinity of cells (SS cells; incubation with peptide): increase in oxygen affinity
- inhibition of whole cell sickling (whole sickle cells): inhibits whole cell sickling
- proportion of sickled cells becoming unsickled as oxygen is made available (whole sickle cells; compared with control): a greater proportion becomes unsickled
- IC50 (whole sickle cells; complete deoxygenation, in vitro dose response, FIG. 9, read-out: extra-cellular concentration reducing the number of sickled cells by 50%): ~5 mM
- percentage of sickled cells (whole sickle cells; pre-incubation with peptide, different partial pressures of oxygen): substantially reduced
- pre-incubation time sufficient to protect against sickling (whole sickle cells; zero oxygen tension, FIG. 8): 15 min
